Laboratory results from ChEMBL document CHEMBL3763024, “Development of 3-(4-aminosulphonyl)-phenyl-2-mercapto-3H-quinazolin-4-ones as inhibitors of carbonic anhydrase isoforms involved in tumorigenesis and glaucoma” (Bioorg Med Chem, 2016).

The molecules below were run against Carbonic anhydrase 1 (Homo sapiens, UniProt P00915) (assay: Inhibition of human recombinant carbonic anhydrase 1 preincubated for 15 mins by stopped flow CO2 hydration assay).
Chain of Carbonic anhydrase 1 (P00915 whole entry): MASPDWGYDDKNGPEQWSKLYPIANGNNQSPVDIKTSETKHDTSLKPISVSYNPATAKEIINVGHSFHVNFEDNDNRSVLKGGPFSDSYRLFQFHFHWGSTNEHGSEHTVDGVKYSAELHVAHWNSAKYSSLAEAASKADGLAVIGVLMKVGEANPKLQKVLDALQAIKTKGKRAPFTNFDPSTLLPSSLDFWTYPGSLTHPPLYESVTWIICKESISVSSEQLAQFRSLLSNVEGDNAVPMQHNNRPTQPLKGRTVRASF
`COc1ccc2c(=O)n(-c3ccc(S(N)(=O)=O)cc3)c(S)nc2c1` was tested, and the Ki was over 10000 nM.

What follows are molecules tested against Carbonic anhydrase 9 (Homo sapiens, UniProt Q16790) (assay: Inhibition of human recombinant carbonic anhydrase 9 preincubated for 15 mins by stopped flow CO2 hydration assay).
`Cc1ccc2nc(S)n(-c3ccc(S(N)(=O)=O)cc3)c(=O)c2c1` was tested, and the Ki was 16.2 nM.
Work on `NS(=O)(=O)c1ccc(-n2c(S)nc3c(F)cccc3c2=O)cc1` yielded a Ki of 45.4 nM.
For `COc1cc2c(=O)n(-c3ccc(S(N)(=O)=O)cc3)c(S)nc2c(OC)c1OC`, the Ki was 50.4 nM.
In the case of `NS(=O)(=O)c1ccc(-n2c(S)nc3cc(Br)ccc3c2=O)cc1`, the Ki is reported as 163 nM.
Molecule `NS(=O)(=O)c1ccc(-n2c(S)nc3c(Cl)cccc3c2=O)cc1` has a Ki of 43.9 nM.
`NS(=O)(=O)c1ccc(-n2c(S)nc3c(Br)cccc3c2=O)cc1` showed a Ki of 4.7 nM.
With `NS(=O)(=O)c1ccc(-n2c(S)nc3cc(Cl)ccc3c2=O)cc1` the Ki was 157 nM.
`Cc1cc(C)c2nc(S)n(-c3ccc(S(N)(=O)=O)cc3)c(=O)c2c1` was tested, and the Ki was 17.5 nM.
For `NS(=O)(=O)c1ccc(-n2c(S)nc3ccc(Cl)cc3c2=O)cc1`, the Ki was 34.9 nM.
`COc1cccc2c(=O)n(-c3ccc(S(N)(=O)=O)cc3)c(S)nc12` was tested, and the Ki was 5.1 nM.
With `Cc1cccc2c(=O)n(-c3ccc(S(N)(=O)=O)cc3)c(S)nc12` the Ki was 35.6 nM.
With `NS(=O)(=O)c1ccc(-n2c(S)nc3c(I)cccc3c2=O)cc1` the Ki was 14.5 nM.
`NS(=O)(=O)c1ccc(-n2c(S)nc3ccc(Br)cc3c2=O)cc1` was tested, and the Ki was 275 nM.
`COc1ccc2nc(S)n(-c3ccc(S(N)(=O)=O)cc3)c(=O)c2c1` showed a Ki of 3.7 nM.
With `COc1ccc2c(=O)n(-c3ccc(S(N)(=O)=O)cc3)c(S)nc2c1OC` the Ki was 49.3 nM.
